# Data as given in patent US20160074421A1 (priority 2014, published 2016).
# Columns and labels:
# PTEN = PTEN (Homo sapiens, UniProt P60484); type: biochemical
# tight junction = tested on: tight junction; set-up: species or system BALB/c mice; conditions: mouse, in vivo, iv
# [1] = tested on: epithelial and endothelial tissues; conditions: in vivo
# Sequence of PTEN (P60484 whole entry): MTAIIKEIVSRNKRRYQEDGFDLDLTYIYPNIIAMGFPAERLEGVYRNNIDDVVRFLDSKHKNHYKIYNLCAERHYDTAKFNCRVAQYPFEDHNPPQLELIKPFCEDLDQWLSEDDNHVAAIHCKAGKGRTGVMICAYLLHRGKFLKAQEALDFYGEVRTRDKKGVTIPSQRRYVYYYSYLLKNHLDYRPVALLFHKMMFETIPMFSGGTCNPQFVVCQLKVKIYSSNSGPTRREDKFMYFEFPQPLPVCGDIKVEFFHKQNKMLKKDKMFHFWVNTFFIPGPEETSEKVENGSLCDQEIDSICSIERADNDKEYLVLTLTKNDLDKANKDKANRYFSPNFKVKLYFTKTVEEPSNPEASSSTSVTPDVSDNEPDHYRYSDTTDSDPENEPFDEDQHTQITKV
substance,measurement,setting,value
zinc ions,activity of PTEN,PTEN,inhibit the activity of PTEN
"1-D-Myo-inositol 1,2,6-triphosphate [alpha trinositol]",effect on tight junction disturbance,tight junction,have a counterbalancing effect
"sodium salt of D-myo-inositol-1,2,6-trisphosphate",progressive deterioration of the structure and function of anatomical structures in epithelial and endothelial tissues,[1],prevented this deterioration
same,confirmation of the prevention of tissue deterioration,[1]; iv,confirmed
